Experimental data: ChEMBL document CHEMBL1201862, “PubChem BioAssay data set” (2004)
Several values for one entry are separate records, joined by “and”; a condition that tells them apart may be missing. Equal values may be shown once.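 Where inhibition never reached the appropriate level, the endpoint shown equals the highest concentration tested. Otherwise, values were interpolated linearly from a five-concentration, 48-hour dose response in 96-well plates. At the GI50, growth is halved.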 Activity calls are given as the source filed them. Rule as the data show it: active = GI50 up to about 1.1 µM and inactive = higher.

What was measured:
Experiment in all cases: DTP human tumour cell line panel, 48 h
UACC-62 = tested on: UACC-62
LOX IMVI = tested on: LOX IMVI
MDA-N = tested on: MDA-N
TK-10 = tested on: TK-10
A549 = tested on: A549
A498 = tested on: A498
UACC-257 = tested on: UACC-257
Hs-578T = tested on: Hs-578T
IGROV-1 = tested on: IGROV-1
OVCAR-3 = tested on: OVCAR-3
NCI-H23 = tested on: NCI-H23
MDA-MB-435 = tested on: MDA-MB-435
MCF7 = tested on: MCF7
COLO 205 = tested on: COLO 205
786-0 = tested on: 786-0
OVCAR-5 = tested on: OVCAR-5
T47D = tested on: T47D
ACHN = tested on: ACHN
NCI-H226 = tested on: NCI-H226
NCI/ADR-RES = tested on: NCI/ADR-RES

Row | SMILES | GI50 (UACC-62) | GI50 (LOX IMVI) | GI50 (MDA-N) | GI50 (TK-10) | GI50 (A549) | GI50 (A498) | GI50 (UACC-257) | GI50 (Hs-578T) | GI50 (IGROV-1) | GI50 (OVCAR-3) | GI50 (NCI-H23) | GI50 (MDA-MB-435) | GI50 (MCF7) | GI50 (COLO 205) | GI50 (786-0) | GI50 (OVCAR-5) | GI50 (T47D) | GI50 (ACHN) | GI50 (NCI-H226) | GI50 (NCI/ADR-RES)
1 | CCOC(=O)CCc1c(C)c2ccc(O)cc2oc1=O | > 100 µM (inactive) | > 100 µM (inactive) | > 100 µM (inactive) | > 100 µM (inactive) | > 100 µM (inactive) | > 100 µM (inactive) | > 100 µM (inactive) | > 100 µM (inactive) | > 100 µM (inactive) | > 100 µM (inactive) | > 100 µM (inactive) | > 100 µM (inactive) | > 100 µM (inactive) | > 100 µM (inactive) | > 100 µM (inactive) | > 100 µM (inactive) | > 100 µM (inactive) | > 100 µM (inactive) | > 100 µM (inactive) | > 100 µM (inactive)
2 | CN(C)c1nc(N)c(C#N)c(C#N)c1C#N | > 10 µM (inactive) | > 10 µM (inactive) | > 10 µM (inactive) | > 10 µM (inactive) | > 10 µM (inactive) | > 10 µM (inactive) | > 10 µM (inactive) | > 10 µM (inactive) | > 6 µM (inactive) | > 10 µM (inactive) | > 7.46 µM (inactive) | > 10 µM (inactive) | > 10 µM (inactive) | > 8.81 µM (inactive) | > 7.16 µM (inactive) | > 10 µM (inactive) | > 8.32 µM (inactive) | > 10 µM (inactive) | > 10 µM (inactive) | > 10 µM (inactive)
3 | C=CCC1(O)c2cccc(O)c2C(=O)c2cccc(O)c21 (configuration not stated) |  | 16.3 µM (inactive) | 8.22 µM (inactive) | 23.5 µM (inactive) | 15.8 µM (inactive) | 13.3 µM (inactive) | 13 µM (inactive) | 14.9 µM (inactive) | 23.6 µM (inactive) | 12.3 µM (inactive) | 8.09 µM (inactive) | 9.38 µM (inactive) | 19.6 µM (inactive) |  | 19.3 µM (inactive) | 22.5 µM (inactive) | 4.12 µM (inactive) | 22.8 µM (inactive) | 22.3 µM (inactive) | 11.2 µM (inactive)
4 | COc1ccc2c(c1)nc1n2C(N)=Nc2ccccc2S1 | 21 µM (inactive) | 11.8 µM (inactive) | 16.9 µM (inactive) | > 100 µM (inactive) | 29.7 µM (inactive) | 37.1 µM (inactive) | 32.5 µM (inactive) | 61 µM (inactive) | 3.75 µM (inactive) | 5.55 µM (inactive) | 40.6 µM (inactive) | 32.4 µM (inactive) | 11.3 µM (inactive) | 6.08 µM (inactive) | 9.68 µM (inactive) | 36.6 µM (inactive) | 20.8 µM (inactive) | 29.6 µM (inactive) | 11.6 µM (inactive) | 35.2 µM (inactive)
5 | CCCCCCCCCCCCCCCC1(OC)C[N+](C)(C)CCO1 (configuration not stated) | 2.76 µM (inactive) | 1.26 µM (inactive) | 2.05 µM (inactive) | 2.45 µM (inactive) | 1.7 µM (inactive) | 19.1 µM (inactive) | 2.08 µM (inactive) | 1.97 µM (inactive) | 1.61 µM (inactive) | 1.75 µM (inactive) | 1.3 µM (inactive) | 1.96 µM (inactive) | 0.221 µM (active) | 1.31 µM (inactive) | 0.813 µM (active) | 2.23 µM (inactive) | 5.73 µM (inactive) | 1.85 µM (inactive) | 1.08 µM (active) | 17.9 µM (inactive)
6 | O=C1c2ccccc2-c2c1c(-c1ccccc1)c1n2C2(C(=O)c3ccccc3C2=O)C2C(=O)N(c3ccccc3)C(=O)C12 (configuration not stated) | 21.6 µM (inactive) | 17 µM (inactive) | 24.7 µM (inactive) | 28.1 µM (inactive) | 85.1 µM (inactive) | 28.1 µM (inactive) | 30.6 µM (inactive) | 17.8 µM (inactive) | 32.3 µM (inactive) | 24.3 µM (inactive) | 17.4 µM (inactive) | 19.8 µM (inactive) | 24.8 µM (inactive) | 18.5 µM (inactive) | 23.4 µM (inactive) | 17.4 µM (inactive) | 16.9 µM (inactive) | 31.9 µM (inactive) | 19.3 µM (inactive) | 74.6 µM (inactive)
7 | C/C1=C\CC[C@@]2(C)O[C@@H]2C[C@@H]2[C@H](C/C(C)=C/CC1)OC(=O)[C@]21CO1 | 75.5 µM (inactive) | 19.6 µM (inactive) | 61.1 µM (inactive) | > 100 µM (inactive) | 65.2 µM (inactive) | > 100 µM (inactive) | > 100 µM (inactive) | > 100 µM (inactive) | 42.2 µM (inactive) | > 100 µM (inactive) | > 100 µM (inactive) | 65.8 µM (inactive) | 41.5 µM (inactive) | > 100 µM (inactive) | > 100 µM (inactive) | > 100 µM (inactive) | > 100 µM (inactive) | > 100 µM (inactive) | > 100 µM (inactive) | > 100 µM (inactive)
8 | CC(C)/C(Cl)=N/OC(NC(=O)Nc1ccc(Cl)c(Cl)c1)(C(F)(F)F)C(F)(F)F | 16 µM (inactive) | 4.51 µM (inactive) | 16.4 µM (inactive) | 17.4 µM (inactive) | 23.2 µM (inactive) | 18.2 µM (inactive) | 13.2 µM (inactive) | 28.6 µM (inactive) | 16.2 µM (inactive) | 5.9 µM (inactive) | 17.8 µM (inactive) | 16.4 µM (inactive) | 19.4 µM (inactive) | 3.17 µM (inactive) | 8.77 µM (inactive) | 19.7 µM (inactive) | 7.64 µM (inactive) | 12.2 µM (inactive) | 19.9 µM (inactive) | 14.6 µM (inactive)
9 | O=C(CSc1nc2ccccc2c(=O)n1-c1ccccc1)N/N=C1\C(=O)Nc2ccc(F)cc21 | 2.24 µM (inactive) | 4.31 µM (inactive) | 3.47 µM (inactive) | 1.9 µM (inactive) | 4 µM (inactive) | 1.85 µM (inactive) | 2.47 µM (inactive) | 4.18 µM (inactive) |  | 1.91 µM (inactive) | 3.01 µM (inactive) | 3.64 µM (inactive) | 2.18 µM (inactive) | 2.64 µM (inactive) | 2.34 µM (inactive) | 2.04 µM (inactive) | 1.87 µM (inactive) | 1.91 µM (inactive) | 2.28 µM (inactive) | 2.21 µM (inactive)
10 | CSCCCNC(=O)c1csc(-c2csc(C(CNC(=O)OC(C)(C)C)CNC(=O)OC(C)(C)C)n2)n1 | 18.1 µM (inactive) | 39.8 µM (inactive) | 51.4 µM (inactive) | 66.1 µM (inactive) |  | 55.2 µM (inactive) | 40.6 µM (inactive) | 45.8 µM (inactive) | 33.3 µM (inactive) | 60 µM (inactive) | 36 µM (inactive) | 45 µM (inactive) | 57.9 µM (inactive) | 34 µM (inactive) | 50.4 µM (inactive) | 67 µM (inactive) | 29.2 µM (inactive) | 30.9 µM (inactive) | 42.5 µM (inactive) | 24.8 µM (inactive)
11 | C/C(=N\NC(N)=S)c1nc2cccnc2[nH]1 | 47.2 µM (inactive) | 73.5 µM (inactive) | > 100 µM (inactive) | > 80.4 µM (inactive) | 57.5 µM (inactive) | > 100 µM (inactive) | > 88.5 µM (inactive) | > 100 µM (inactive) | 82 µM (inactive) | 31.8 µM (inactive) |  | 52.4 µM (inactive) | 26.8 µM (inactive) | 38.8 µM (inactive) | 51.8 µM (inactive) | 47.1 µM (inactive) | 45.1 µM (inactive) | 43 µM (inactive) | > 56 µM (inactive) | 38.5 µM (inactive)
12 | COCN1C(=O)[C@@H]2CCCN2C(=O)c2ccc(Cl)cc21 | > 100 µM (inactive) | > 100 µM (inactive) | > 100 µM (inactive) | > 100 µM (inactive) | > 100 µM (inactive) | > 100 µM (inactive) | > 100 µM (inactive) | > 100 µM (inactive) | > 100 µM (inactive) |  | > 100 µM (inactive) | > 100 µM (inactive) | > 100 µM (inactive) | > 100 µM (inactive) | > 100 µM (inactive) | > 100 µM (inactive) | > 100 µM (inactive) | > 100 µM (inactive) | > 100 µM (inactive) | > 100 µM (inactive)
13 | O=C(/C=C/c1ccccc1)c1ccccn1 | 16.6 µM (inactive) and 20.6 µM (inactive) | 10.9 µM (inactive) and 17.6 µM (inactive) | 16.9 µM (inactive) and 27.2 µM (inactive) | 19 µM (inactive) and 15.2 µM (inactive) | 19.4 µM (inactive) and 32.6 µM (inactive) | 13 µM (inactive) and 17.5 µM (inactive) | 13.2 µM (inactive) and 16.4 µM (inactive) | 22.6 µM (inactive) | 10.5 µM (inactive) and 17.4 µM (inactive) | 12.7 µM (inactive) and 16.4 µM (inactive) | 17.9 µM (inactive) and 17.5 µM (inactive) | 26.5 µM (inactive) and 18.9 µM (inactive) | 16 µM (inactive) | 18.6 µM (inactive) and 22.2 µM (inactive) | 12.3 µM (inactive) and 17.2 µM (inactive) |  | 23.8 µM (inactive) and 13 µM (inactive) | 15.5 µM (inactive) and 16.9 µM (inactive) | 16.6 µM (inactive) and 26.7 µM (inactive) | 22.2 µM (inactive) and 28.4 µM (inactive)
14 | CCCCCCOC(=O)/C=C/[C@]1(CO)C/C(=C/CC(C(C)C)C(C)C)C(=O)O1 | 13.9 µM (inactive) | 10.6 µM (inactive) | 1.39 µM (inactive) | 1.77 µM (inactive) | 2.99 µM (inactive) | 4.82 µM (inactive) | 16.5 µM (inactive) | 4.75 µM (inactive) | 15.1 µM (inactive) | 11.9 µM (inactive) | 12.2 µM (inactive) | 0.738 µM (active) | 16 µM (inactive) |  | 4.36 µM (inactive) | 11.6 µM (inactive) | 16.8 µM (inactive) | 6.95 µM (inactive) | 3.41 µM (inactive) | 13.9 µM (inactive)
